Experimental data reported in the NIST ThermoML archive (doi:10.1021/je049605r).
Numbers after ± are expanded uncertainties.

Key:
[1] = refractive index (Na D-line) (dimensionless); conditions: 293.2 K; 101.33 kPa; Liquid; Standard Abbe refractometry
[2] = 293.2 K; 101.33 kPa; Liquid

Row | refractive index [1] | mass density [2] [kg/m3] | SMILES
1 | 1.4648 ± 0.0007 | 963.5 ± 9.6 | OC1CCCCC1 [cyclohexanol]
2 | 1.441 ± 0.0007 | 970.3 ± 0.3 | CC(=O)OC1CCCCC1 [cyclohexyl ethanoate]
3 | 1.3326 ± 0.0007 |  | O [water]
4 | 1.4525 ± 0.0007 | 1055.1 ± 0.6 | OCC1CCCO1 (stereo unspecified) [2-tetrahydrofurylmethanol]
5 | 1.4269 ± 0.0007 | 779.3 ± 0.6 | C1CCCCC1 [cyclohexane]

Row | SMILES | refractive index [1] | mass density [2] [kg/m3]
6 | Clc1ccccc1 [chlorobenzene] | 1.5244 ± 0.0007 | 1106.2 ± 0.4
